Data set [1] concerns PK1 neuroblastoma cells exposed to TPrP. To be noted: for EC50: read-out: TPrP EC50; for toxic at cc (concentration above which compound is toxic): mouse.
Data set [2] shares this test system. The data set is described as follows: cells. Conditions: Neuroblastoma cell, 96 h, read-out: TPrP EC50.

Several values for one entry are separate records, joined by “and”; a condition that tells them apart may be missing. Identical values can stand only once. Like-named read-outs stand apart in the source and are kept apart here.

As a reminder, the EC50 is the concentration that produces a half-maximal response.

With `Cc1ccc(-c2nnc3c4ccccc4c(C)nn23)cc1S(=O)(=O)N1CCOCC1` [SR-843], the EC50 in data set [1] was 20 nM and 25 nM and 30 nM; in data set [2], 15 nM.
Regarding `Cc1ccc(-c2nnc(-c3ccccc3)[nH]2)cc1S(=O)(=O)N1CCOCC1` [SR-25604, 4-((2-Methyl-5-(5-phenyl-4H-1,2,4-triazol-3-yl)phenyl)sulfonyl)morpholine], the EC50 in data set [1] was 30 nM and 40 nM; in data set [2], 35 nM.
`Cc1ccc(-c2nnc(-c3ccc(N(C)C)cc3)[nH]2)cc1S(=O)(=O)N1CCOCC1` [SR-28124, N,N-dimethyl-4-(5-(4-methyl-3-(morpholinosulfonyl)phenyl)-4H-1,2,4-triazol-3-yl)aniline]: in data set [1], the “toxic at cc (concentration above which compound is toxic)” value was 12 nM (but toxic at cc >135 nM). Further, in data set [2], the EC50 amounted to 12 nM.
The matching figures for `Cc1ccc(-c2nnc(-c3ccc([N+](=O)[O-])cc3)[nH]2)cc1S(=O)(=O)N1CCOCC1` [SR-29045, 4-((2-Methyl-5-(5-(4-nitrophenyl)-4H-1,2,4-triazol-3-yl)phenyl)sulfonyl) morpholine]: 5 nM (but toxic at cc >5 nM) and 5 nM.
As to `Cc1ccc(-c2ccnc(-c3ccncc3)c2)cc1S(=O)(=O)N1CCOCC1` [SR-29204, 4-((5-([2,4′-Bipyridin]-4-yl)-2-methylphenyl)sulfonyl)morpholine], in data set [1], the “protection at 5 nM” value is <5 nM (100% protection at 5 nM). Further, the concentration giving a half-maximal response (EC50) in data set [2] was less than 5 nM.
With `Cc1ccc(-c2nnc(-c3ccccc3)[nH]2)cc1S(=O)(=O)N1CCN(CCc2ccncc2)CC1` [SR-33364, 1-((2-Methyl-5-(5-phenyl-4H-1,2,4-triazol-3-yl)phenyl)sulfonyl)-4-(2-(pyridin-4-yl)ethyl)piperazine], in data set [2], the EC50 came out at 5 nM.
For the compound `Cc1c(F)cc(-c2nnc(-c3ccccc3)[nH]2)cc1S(=O)(=O)N1CCN(CCO)CC1` [SR-33604, 2-(4-((3-Fluoro-2-methyl-5-(5-phenyl-4H-1,2,4-triazol-3-yl)phenyl)sulfonyl)piperazin-1-yl)ethan-1-ol], in data set [2], the concentration giving a half-maximal response (EC50) was 90 nM.
As to `Cc1ccc(-c2nnc(-c3ccccc3)[nH]2)cc1S(=O)(=O)N1CCC(CCO)CC1` [SR-33725, 2-(1-((2-Methyl-5-(5-phenyl-4H-1,2,4-triazol-3-yl)phenyl)sulfonyl)piperidin-4-yl)ethan-1-ol], the EC50 in data set [2] was greater than 1500 nM.
With `Cc1ccc(-c2nnc(-c3ccccc3)[nH]2)cc1S(=O)(=O)N1CCN(CCNC(=O)OC(C)(C)C)CC1` [SR-34024, tert-Butyl (2-(4-((2-methyl-5-(5-phenyl-4H-1,2,4-triazol-3-yl)phenyl)sulfonyl)piperazin-1-yl)ethyl)carbamate], the EC50 in data set [2] was roughly 1500 nM.
As for `Cc1ccc(-c2ccnc(N3CCOCC3)c2)cc1S(=O)(=O)N1CC(O)C1` [SR-34464, 1-((2-Methyl-5-(2-morpholinopyridin-4-yl)phenyl)sulfonyl)azetidin-3-ol], in data set [2], the EC50 worked out at 300 nM.
As for `COCCN1CCN(S(=O)(=O)c2cc(-c3nnc(-c4ccccc4)[nH]3)ccc2C)CC1` [SR-34533, 1-(2-Methoxyethyl)-4-((2-methyl-5-(5-phenyl-4H-1,2,4-triazol-3-yl)phenyl)sulfonyl)piperazine], the EC50 in data set [2] was greater than 1500 nM.
`Cc1cc(C)c(S(=O)(=O)N2CCN(CCO)CC2)cc1-c1nnc(-c2ccccc2)[nH]1` [SR-34778, 2-(4-((2,4-Dimethyl-5-(5-phenyl-4H-1,2,4-triazol-3-yl)phenyl)sulfonyl)piperazin-1-yl)ethan-1-ol]: the EC50 in data set [2] is 13 nM.
For the compound `Cc1ccc(-c2ccnc(Cl)c2)cc1S(=O)(=O)N1CCN(CCO)CC1` [SR-34793, 2-(4-((5-(2-Chloropyridin-4-yl)-2-methylphenyl)sulfonyl)piperazin-1-yl)ethan-1-ol], the EC50 in data set [2] stood at 40 nM.
Regarding `Cc1cc(C)c(S(=O)(=O)N2CCN(CCO)CC2)cc1-c1ccnc(Cl)c1` [SR-34951, 2-(4-((5-(2-Chloropyridin-4-yl)-2,4-dimethylphenyl)sulfonyl)piperazin-1-yl)ethan-1-ol], the EC50 in data set [2] was 90 nM.
For `Cc1cc(F)c(-c2ccnc(Cl)c2)cc1S(=O)(=O)N1CCN(CCO)CC1` [SR-35015, 2-(4-((5-(2-Chloropyridin-4-yl)-4-fluoro-2-methylphenyl)sulfonyl)piperazin-1-yl)ethan-1-ol], the EC50 in data set [2] was determined as 50 nM.
Still for that read-out and setting: the value for `Cc1ccc(-c2ccnc(Cl)c2)cc1S(=O)(=O)N1CCN(CCF)CC1` [SR-35017, 1-((5-(2-Chloropyridin-4-yl)-2-methylphenyl)sulfonyl)-4-(2-fluoroethyl) piperazine] was 900 nM.
In the case of `Cc1ccc(-c2ccnc(Cl)c2)cc1S(=O)(=O)N1CCN(CC(F)F)CC1` [SR-35124, 1-((5-(2-Chloropyridin-4-yl)-2-methylphenyl)sulfonyl)-4-(2,2-difluoroethyl) piperazine], the EC50 in data set [2] is greater than 1500 nM.
As for `Cc1ccc(-c2ccnc(Cl)c2)cc1S(=O)(=O)N1CCN(CCCO)CC1` [SR-35129, 3-(4-((5-(2-Chloropyridin-4-yl)-2-methylphenyl)sulfonyl)piperazin-1-yl)propan-1-ol], the EC50 in data set [2] is greater than 1500 nM.
Take `C#CCCC(=O)CCn1cc(-c2ccc(C)c(S(=O)(=O)N3CCN(CCc4ccncc4)CC3)c2)cn1` [SR-35186, 1-(4-(4-Methyl-3-((4-(2-(pyridin-4-yl)ethyl)piperazin-1-yl)sulfonyl)phenyl)-1H-pyrazol-1-yl)hept-6-yn-3-one]: the concentration giving a half-maximal response (EC50) in data set [2] was less than 5 nM.
For `Cc1ccc(-c2ccnc(Cl)c2)cc1S(=O)(=O)N1CCN(CC(F)(F)F)CC1` [SR-35324, 1-((5-(2-Chloropyridin-4-yl)-2-methylphenyl)sulfonyl)-4-(2,2,2-trifluoroethyl) piperazine], the 50% effective concentration (EC50) in data set [2] was greater than 1500 nM.
`Cc1ccc(-c2ccnc(Cl)c2)cc1S(=O)(=O)N1CCNCC1` [SR-35422, 1-((5-(2-Chloropyridin-4-yl)-2-methylphenyl)sulfonyl)piperazine]: in data set [2], the EC50 is less than 5 nM.
For the compound `Cc1ccc(-c2ccnc(Cl)c2)cc1S(=O)(=O)N1CCN(CC(C)O)CC1` (stereo not shown) [SR-35464, 1-(4-((5-(2-Chloropyridin-4-yl)-2-methylphenyl)sulfonyl)piperazin-1-yl)propan-2-ol], in data set [2], the 50% effective concentration (EC50) is 800 nM.
Take `Cc1ccc(-c2ccnc(Cl)c2)cc1S(=O)(=O)N1CCN(C(=O)c2ccco2)CC1` [SR-35516, (4-((5-(2-Chloropyridin-4-yl)-2-methylphenyl)sulfonyl)piperazin-1-yl)(furan-2-yl)methanone]: the EC50 in data set [2] turned out to be 270 nM.

For the origin of these results see patent US20240124466A1, “COMPOUNDS AND USE THEREOF FOR TREATMENT OF NEURODEGENERATIVE, DEGENERATIVE AND METABOLIC DISORDERS” (VOVA IDA THERAPEUTICS, INC., priority 2020, published 2024).
